We go through one cell line from the supplement of paper PMC10307832.

Assay in all cases: relative viability (nuclei count vs DMSO), 5 days (fraction); higher = more cells survive
Compound in the assay “BI-D1870 + Crizotinib”: CC(C)CCN1c2nc(Nc3cc(F)c(O)c(F)c3)ncc2N(C)C(=O)C1C [BI-D1870] + C[C@@H](Oc1cc(-c2cnn(C3CCNCC3)c2)cnc1N)c1c(Cl)ccc(F)c1Cl [Crizotinib] (partner 1 µM)
An outline of the steps:
(§1)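 Relative viability is defined as nuclei in treated wells over nuclei in vehicle wells. Duplicate plates were run and medians reported. Lung cancer cell lines in 1536-well plates were dosed by pin tool one day after seeding, with one drug or with a fixed anchor-drug dose plus five library-drug doses (not always all listed) in √10 steps, and nuclei were counted after 5 days.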

Compound in the assay “BI-D1870 + Pemetrexed”: CC(C)CCN1c2nc(Nc3cc(F)c(O)c(F)c3)ncc2N(C)C(=O)C1C [BI-D1870] + Nc1nc2[nH]cc(CCc3ccc(C(=O)N[C@@H](CCC(=O)O)C(=O)O)cc3)c2c(=O)[nH]1 [Pemetrexed] (partner 0.2 µM)
An outline of the steps:
as §1

Compound in the assay “Zebularine + Alpelisib”: O=c1ncccn1[C@@H]1O[C@H](CO)[C@@H](O)[C@H]1O [Zebularine] + Cc1nc(NC(=O)N2CCC[C@H]2C(N)=O)sc1-c1ccnc(C(C)(C)C(F)(F)F)c1 [Alpelisib] (partner 2 µM)
Put shortly: as §1

Compound in the assay “Zebularine + Vorinostat”: O=c1ncccn1[C@@H]1O[C@H](CO)[C@@H](O)[C@H]1O [Zebularine] + O=C(CCCCCCC(=O)Nc1ccccc1)NO [Vorinostat] (partner 1 µM)
Put shortly: as §1

Consider UMC-11, for which the relative viability with BI-D1870 + Crizotinib (first compound 0.04 µM) was 0.477; with BI-D1870 + Crizotinib (first compound 0.1265 µM), 0.585; in the assay with BI-D1870 + Crizotinib (first compound 0.4 µM), 0.533; with BI-D1870 + Crizotinib (first compound 1.265 µM), 0.694; in the assay with BI-D1870 + Crizotinib (first compound 4 µM), 0.172; with BI-D1870 + Pemetrexed (first compound 0.04 µM) it was 0.812. Moreover, the relative viability in the assay with BI-D1870 + Pemetrexed (first compound 0.1265 µM) came to 0.751; with BI-D1870 + Pemetrexed (first compound 0.4 µM) it was 0.777; in the assay with BI-D1870 + Pemetrexed (first compound 1.265 µM), 0.779; with BI-D1870 + Pemetrexed (first compound 4 µM), 0.277; with Zebularine + Alpelisib (first compound 1 µM) it was 1.08; in the assay with Zebularine + Alpelisib (first compound 3.162 µM), 0.958. For the same cell line, the relative viability with Zebularine + Alpelisib (first compound 10 µM) amounted to 0.419; with Zebularine + Alpelisib (first compound 31.62 µM) it was 0.789; with Zebularine + Alpelisib (first compound 100 µM), 0.419; in the assay with Zebularine + Vorinostat (first compound 1 µM) it was 0.388; with Zebularine + Vorinostat (first compound 3.162 µM), 0.359; with Zebularine + Vorinostat (first compound 10 µM), 0.335. The relative viability with Zebularine + Vorinostat (first compound 31.62 µM) stood at 0.331; with Zebularine + Vorinostat (first compound 100 µM), 0.279.
